Assay [1] relates to MCF-7. As to conditions: most active derivatives published earlier; read-out: Cell Line, IC50 [ μM] MCF-7; cited from earlier work.
In assay [2] the test system is HeLa. Description: MTT assay, HeLa. Format: cell-based. The following applies: for IC50: Homo sapiens, MTT assay, HeLa cervix carcinoma, (±s) standard deviation; for Selectivity Index HeLa: IC50 for normal cell line (HDF)/IC50 for HeLa.
The test system of assay [3] is KB. The assay can be described thus: MTT assay, KB. In kind it is cell-based. The following applies: for IC50: Homo sapiens, MTT assay, KB nasopharynx carcinoma, (±s) standard deviation; for Selectivity Index KB: IC50 for normal cell line (HDF)/IC50 for KB.
Assay [4] concerns HeLa, KB, MCF-7, A-549 and HDF cell lines. Description: MTT assay, statements over several tested cell lines. Format: cell-based. As to conditions: summary over the tested cell lines; read-out: IC50 values for the tested cell lines (range or summary).
Assay [5] has as its system A-549. Description: MTT assay, A-549. In kind it is cell-based. The following applies: for IC50: Homo sapiens, A549, MTT assay, A-549 lung carcinoma, (±s) standard deviation; for Selectivity Index A-549: IC50 for normal cell line (HDF)/IC50 for A-549.
The test system of assay [6] is HeLa. As to conditions: most active derivatives published earlier; read-out: Cell Line, IC50 [ μM] HeLa; cited from earlier work.
Assay [7] deals with KB. As to conditions: most active derivatives published earlier; read-out: Cell Line, IC50 [ μM] KB; cited from earlier work.
Assay [8] relates to HDF (normal fibroblast cell line). The assay can be described thus: MTT assay, HDF. Format: cell-based, human. The following applies: for IC50: Homo sapiens, Fibroblast, MTT assay, HDF normal fibroblast cell line, (±s) standard deviation.
Assay [9] deals with MCF-7. Description: MTT assay, MCF-7. In kind it is cell-based. The following applies: for IC50: Homo sapiens, MCF7, MTT assay, MCF-7 breast carcinoma, (±s) standard deviation; for Selectivity Index MCF-7: IC50 for normal cell line (HDF)/IC50 for MCF-7.
The subject of assay [10] is U-87MG cells. Description: Apoptosis assay (DNA fragmentation), U-87MG. In kind it is cell-based. The source says: The necrosis process induced by all the tested compounds was very small.
Setting [11] is: ratio of IC50 values vs oleanolic acid (1).

Molecules are shown by their SMILES. Read-outs that look alike come from different tables or passages of the source.

Consider `CC1(C)CCC2(C(=O)N3CCOCC3)CCC3(C)C(=CCC4C5(C)CCC(=NO)C(C)(C)C5CCC43C)C2C1` (stereo not drawn) [Compound 4], for which the IC50 in assay [1] was 1.6 µM; in [2], 8.72 µM; in assay [3], 8.72 µM; in assay [4] it was 7 to 8 µM; in assay [5], 7.29 µM; in assay [6], 1.8 µM. In addition, the concentration for half-maximal inhibition (IC50) was 1.74 µM in assay [7], 13.9 µM in assay [8] and 7.42 µM in assay [9]. Also, in [2], the “Selectivity Index HeLa” value is given as 1.60. The “Selectivity Index KB” value in [3] came to 1.60. Besides, the “Selectivity Index A-549” value in assay [5] is recorded as 1.91. Also, the “Selectivity Index MCF-7” value in assay [9] came to 1.88.

Turning to `COC(=O)C12CCC(C)(C)CC1C1=CC(=O)C3C4(C)CCC(=NO)C(C)(C)C4CCC3(C)C1(C)CC2` (stereo not drawn) [Compound 3], the IC50 in assay [1] is over 10 µM; in [2], 125 µM; in assay [3], 60.3 µM; in assay [5], 63 µM; in assay [6], 5.03 µM; in assay [7], 6.19 µM. Besides, the IC50 in assay [8] came out at 61 µM; in [9], 48.4 µM. In addition, the “Selectivity Index HeLa” value in [2] stood at 0.49. For the same compound, the “Selectivity Index KB” value in assay [3] amounted to 1.01. Also, in assay [5], the “Selectivity Index A-549” value is 0.97. Further, the “Selectivity Index MCF-7” value in [9] was determined as 1.26.

In the case of `COC(=O)[C@]12CCC(C)(C)CC1C1=CCC3[C@@]4(C)CC/C(=N\OC(=O)c5cc([N+](=O)[O-])cc([N+](=O)[O-])c5)C(C)(C)C4CC[C@@]3(C)[C@]1(C)CC2` (stereo partly drawn) [Compound 5g, 3-(3′,5′-Dinitro)benzoxyiminoolean-12-en-28-oic acid methyl ester], the “increase in DNA fragmentation” value was found to be 2.5 fold in assay [10] (0.1 µg/mL) and 4.2 fold in [10] (1.0 µg/mL). Further, the IC50 in [2] is 4.19 µM; in assay [3] it was 4.61 µM; in assay [4], 4.19 to 8.98 µM; in assay [5] it was 4.82 µM; in assay [8], 6.22 µM; in assay [9] it was 5.18 µM. In assay [2], the “Selectivity Index HeLa” value is recorded as 1.48. The “fold as active as OA (1), HeLa” value in [2] (setting [11]) is about 3 fold. In addition, the “Selectivity Index KB” value in [3] was determined as 1.35. Besides, the “fold as active as OA (1), KB” value in [3] (setting [11]) is 3.2 fold. The “Selectivity Index A-549” value in [5] was found to be 1.29. Also, the “fold as active as OA (1), A-549” value in assay [5] (setting [11]) is reported as about 2 fold. Besides, in assay [8] (ratio of IC50 values vs oleanolic acid (1), normal cell line), the “fold as active as OA (1), HDF” value is about 3 fold. Further, in assay [9], the “Selectivity Index MCF-7” value is recorded as 1.20. Further, in assay [9] (setting [11]), the “fold as active as OA (1), MCF-7” value is given as about 3 fold.

Values taken from publication PMC10819243 (Pharmaceutics, 2024).
